Measurements from ChEMBL document CHEMBL4177660, “Discovery of furan and dihydrofuran-fused tricyclic benzo[d]imidazole derivatives as potent and orally efficacious microsomal prostaglandin E synthase-1 (mPGES-1) inhibitors: Part-1” (Bioorg Med Chem Lett, 2017).
Converted amounts (≈) assume the structure as drawn.

Experiments:
[1] = Intrinsic solubility of the compound; assay type: physicochemical
[2] = Ratio of drug level in Sprague-Dawley rat brain to plasma; assay type: ADME, cell-free; details: brain and plasma, read-out: BPR
[3] = Permeability of the compound by PAMPA; assay type: ADME; details: read-out: permeability
[4] = Solubility of the compound in DMSO; assay type: physicochemical
[5] = Solubility of the compound in FaSSIF at pH 6; assay type: physicochemical
[6] = Solubility of the compound in FeSSIF at pH 5.2; assay type: physicochemical
[7] = Solubility of the compound in acetate buffer at pH 4.5; assay type: physicochemical
[8] = Solubility of the compound in 0.1N HCl; assay type: physicochemical
[9] = test system: Rattus norvegicus; test: Cmax in Sprague-Dawley rat at 10 mg/kg, po; assay type: ADME, organism-based; parameters: dose 10 mg/kg, route oral; details: in vivo
[10] = test system: Rattus norvegicus; test: AUC (0 to 24 hrs) in Sprague-Dawley rat at 10 mg/kg, po; assay type: ADME, organism-based; parameters: time < 24 hr, dose 10 mg/kg, route oral; details: in vivo
[11] = test system: Rattus norvegicus; test: Tmax in Sprague-Dawley rat at 10 mg/kg, po; assay type: ADME, organism-based; details: in vivo
[12] = Oral bioavailability in Sprague-Dawley rat at 10 mg/kg; assay type: ADME, organism-based; details: in vivo
[13] = Cmax in Sprague-Dawley rat at 30 mg/kg, po; assay type: ADME, organism-based; parameters: dose 30 mg/kg, route oral; details: in vivo
[14] = AUC (0 to 24 hrs) in Sprague-Dawley rat at 30 mg/kg, po; assay type: ADME, organism-based; parameters: time < 24 hr, dose 30 mg/kg, route oral; details: in vivo
[15] = Tmax in Sprague-Dawley rat at 30 mg/kg, po; assay type: ADME, organism-based; details: in vivo
[16] = Oral bioavailability in Sprague-Dawley rat at 30 mg/kg; assay type: ADME, organism-based; details: in vivo
[17] = Cmax in Sprague-Dawley rat at 100 mg/kg, po; assay type: ADME, organism-based; parameters: dose 100 mg/kg, route oral; details: in vivo
[18] = AUC (0 to 24 hrs) in Sprague-Dawley rat at 100 mg/kg, po; assay type: ADME, organism-based; parameters: dose 100 mg/kg, time < 24 hr, route oral; details: in vivo
[19] = Tmax in Sprague-Dawley rat at 100 mg/kg, po; assay type: ADME, organism-based; details: in vivo
[20] = Cmax in Dunkin-Hartley guinea pig at 10 mg/kg, po; assay type: ADME, organism-based, Cavia porcellus; parameters: dose 10 mg/kg, route oral; details: in vivo
[21] = AUC (0 to 24 hrs) in Dunkin-Hartley guinea pig at 10 mg/kg, po; assay type: ADME, organism-based, Cavia porcellus; parameters: time < 24 hr, dose 10 mg/kg, route oral; details: in vivo
[22] = Tmax in Dunkin-Hartley guinea pig at 10 mg/kg, po; assay type: ADME, organism-based, Cavia porcellus; details: in vivo
[23] = Cmax in Dunkin-Hartley guinea pig at 30 mg/kg, po; assay type: ADME, organism-based, Cavia porcellus; parameters: dose 30 mg/kg, route oral; details: in vivo
[24] = AUC (0 to 24 hrs) in Dunkin-Hartley guinea pig at 30 mg/kg, po; assay type: ADME, organism-based, Cavia porcellus; parameters: dose 30 mg/kg, time < 24 hr, route oral; details: in vivo
[25] = Tmax in Dunkin-Hartley guinea pig at 30 mg/kg, po; assay type: ADME, organism-based, Cavia porcellus; details: in vivo
[26] = Cmax in Dunkin-Hartley guinea pig at 100 mg/kg, po; assay type: ADME, organism-based, Cavia porcellus; parameters: dose 100 mg/kg, route oral; details: in vivo
[27] = AUC (0 to 24 hrs) in Dunkin-Hartley guinea pig at 100 mg/kg, po; assay type: ADME, organism-based, Cavia porcellus; parameters: time < 24 hr, dose 100 mg/kg, route oral; details: in vivo
[28] = Tmax in Dunkin-Hartley guinea pig at 100 mg/kg, po; assay type: ADME, organism-based, Cavia porcellus; details: in vivo
[29] = Cmax in Beagle dog at 10 mg/kg, po; assay type: ADME, organism-based, Canis lupus familiaris; parameters: dose 10 mg/kg, route oral; details: in vivo
[30] = AUC (0 to 24 hrs) in Beagle dog at 10 mg/kg, po; assay type: ADME, organism-based, Canis lupus familiaris; parameters: time < 24 hr, dose 10 mg/kg, route oral; details: in vivo
[31] = Tmax in Beagle dog at 10 mg/kg, po; assay type: ADME, organism-based, Canis lupus familiaris; details: in vivo
[32] = Cmax in cynomolgus monkey at 10 mg/kg, po; assay type: ADME, organism-based, Macaca fascicularis; parameters: dose 10 mg/kg, route oral; details: in vivo
[33] = AUC (0 to 24 hrs) in cynomolgus monkey at 10 mg/kg, po; assay type: ADME, organism-based, Macaca fascicularis; parameters: dose 10 mg/kg, time < 24 hr, route oral; details: in vivo
[34] = Tmax in cynomolgus monkey at 10 mg/kg, po; assay type: ADME, organism-based, Macaca fascicularis; details: in vivo
[35] = Oral bioavailability in cynomolgus monkey at 10 mg/kg; assay type: ADME, organism-based, Macaca fascicularis; details: in vivo
[36] = test system: Cynomolgus monkey; test: Apparent volume of distribution in cynomolgus monkey at 10 mg/kg, po; assay type: ADME, organism-based, Macaca fascicularis; details: in vivo
[37] = Drug level in Sprague-Dawley rat brain; assay type: ADME, tissue-based; details: in vivo
[38] = Drug level in Sprague-Dawley rat plasma; assay type: ADME, cell-free
[39] = Plasma concentration in Dunkin-Hartley guinea pig model of LPS-induced thermal hyperalgesia at 3 mg/kg, po pretreated for 4 hrs followed by LPS challenge measured at […] post dose; assay type: ADME, organism-based, Cavia porcellus
[40] = Plasma concentration in Dunkin-Hartley guinea pig model of LPS-induced thermal hyperalgesia at 10 mg/kg, po pretreated for 4 hrs followed by LPS challenge measured at […] post dose; assay type: ADME, organism-based, Cavia porcellus
[41] = Plasma concentration in Dunkin-Hartley guinea pig model of LPS-induced thermal hyperalgesia at 30 mg/kg, po pretreated for 4 hrs followed by LPS challenge measured at […] post dose; assay type: ADME, organism-based, Cavia porcellus
[42] = test system: Rattus norvegicus; test: Apparent volume of distribution in Sprague-Dawley rat at 1 mg/kg, iv; details: in vivo

## CC1(C)Cc2c(c(C(=O)Nc3ccc(C(F)(F)F)cc3)cc3nc(Nc4c(F)cccc4Cl)[nH]c23)O1
[1]
  solubility: Soluble
[2]
  Kp: 0.22
[3]
  Papp: 0.13 ×10⁻⁶ cm/s
[4]
  solubility: 25000 µg/mL (≈ 48200 µM)
[5]
  solubility: 0.9 µg/mL (≈ 1.73 µM)
[6]
  solubility: 0.6 µg/mL (≈ 1.16 µM)
[7]
  solubility: Insoluble
[8]
  solubility: 0.2 µg/mL (≈ 0.385 µM)
[9]
  Cmax: 546 ng/mL
[10]
  AUC: 6505 ng·h/mL
[11]
  Tmax: 2 h
[12]
  bioavailability: 100%
[13]
  Cmax: 2530 ng/mL
[14]
  AUC(0-t) at 24 h: 32400 ng·h/mL
[15]
  Tmax: 2 h
[16]
  bioavailability: 100%
[17]
  Cmax: 5550 ng/mL
[18]
  AUC(0-t) at 24 h: 108000 ng·h/mL
[19]
  Tmax: 8 h
[20]
  Cmax: 426 ng/mL
[21]
  AUC(0-t) at 24 h: 5080 ng·h/mL
[22]
  Tmax: 4 h
[23]
  Cmax: 742 ng/mL
[24]
  AUC(0-t) at 24 h: 11600 ng·h/mL
[25]
  Tmax: 4 h
[26]
  Cmax: 736 ng/mL
[27]
  AUC(0-t) at 24 h: 11700 ng·h/mL
[28]
  Tmax: 2 h
[29]
  Cmax: 1090 ng/mL
[30]
  AUC(0-t) at 24 h: 22000 ng·h/mL
[31]
  Tmax: 12 h
[32]
  Cmax: 908 ng/mL
[33]
  AUC(0-t) at 24 h: 16700 ng·h/mL
[34]
  Tmax: 6 h
[35]
  bioavailability: 78%
[36]
  Vz: 1.67 L/kg
[37]
  Drug uptake: 58.9 ng/mL
[38]
  Cp: 268.9 ng/mL
[39]
  concentration at […]: 43 ng/mL
[40]
  concentration at […]: 116 ng/mL
[41]
  concentration at […]: 371 nM
[42]
  Vz: 3.59 L/kg

## CC1(C)Cc2c(c(C(=O)NCC(F)(F)C(F)(F)F)cc3nc(Nc4c(Cl)cccc4Cl)[nH]c23)O1
[1]
  solubility: Soluble

## CC1(C)Cc2c(c(C(=O)Nc3ccc(F)cc3)cc3nc(Nc4c(Cl)cccc4Cl)[nH]c23)O1
[1]
  solubility: Soluble

## CC1(C)Cc2c(c(C(=O)Nc3ccc(F)c(C(F)(F)F)c3)cc3nc(Nc4c(Cl)cncc4Cl)[nH]c23)O1
[1]
  solubility: Soluble

## CC1(C)Cc2c(c(C(=O)NCC3CC3)cc3nc(Nc4c(Cl)cncc4Cl)[nH]c23)O1
[1]
  solubility: Soluble

## CC1(C)Cc2c(c(C(=O)Nc3ccccc3)cc3nc(Nc4c(Cl)cccc4Cl)[nH]c23)O1
[1]
  solubility: Soluble

## CC1(C)Cc2c(c(C(=O)Nc3ccc(OC(F)F)nc3)cc3nc(Nc4c(F)cccc4Cl)[nH]c23)O1
[1]
  solubility: Soluble

## CC1(C)Cc2c(c(C(=O)NC3CCC(F)(F)CC3)cc3nc(Nc4c(Cl)cccc4Cl)[nH]c23)O1
[1]
  solubility: Soluble

## COc1ccc(NC(=O)c2cc3nc(Nc4c(Cl)cccc4Cl)[nH]c3c3c2OC(C)(C)C3)cn1
[1]
  solubility: Soluble

## CC1(C)Cc2c(c(C(=O)NCC3CCCCC3)cc3nc(Nc4c(Cl)cncc4Cl)[nH]c23)O1
[1]
  solubility: Soluble

## Cc1cc2c(o1)c(C(=O)Nc1ccc(C(F)(F)F)cc1)cc1nc(Nc3c(Cl)cncc3Cl)[nH]c12
[1]
  solubility: Insoluble

## CC1(C)Cc2c(c(C(=O)NCC3CC3)cc3nc(Nc4c(Cl)cccc4Cl)[nH]c23)O1
[1]
  solubility: Soluble

## CC1(C)Cc2c(c(C(=O)Nc3ccc(C(F)(F)F)cc3)cc3nc(Nc4c(Cl)cccc4Cl)[nH]c23)O1
[1]
  solubility: Soluble
[4]
  solubility: 20000 µg/mL (≈ 37400 µM)
[5]
  solubility: 0.3 µg/mL (≈ 0.56 µM)
[6]
  solubility: 0.6 µg/mL (≈ 1.12 µM)
[7]
  solubility: Insoluble
[8]
  solubility: 0.1 µg/mL (≈ 0.187 µM)

## CC1(C)Cc2c(c(C(=O)Nc3ccc(Cl)cn3)cc3nc(Nc4c(F)cccc4Cl)[nH]c23)O1
[1]
  solubility: Soluble

## CC1(C)Cc2c(c(C(=O)NCC3CCCC3)cc3nc(Nc4c(Cl)cccc4Cl)[nH]c23)O1
[1]
  solubility: Soluble

## CC1(C)Cc2c(c(C(=O)Nc3ccc(F)cc3)cc3nc(Nc4c(F)cccc4Cl)[nH]c23)O1
[1]
  solubility: Soluble

## CC1(C)Cc2c(c(C(=O)Nc3cccc(C4CC4)c3)cc3nc(Nc4c(F)cccc4Cl)[nH]c23)O1
[1]
  solubility: Soluble

## Cc1cc2c(o1)c(C(=O)Nc1ccc(C(F)(F)F)cc1)cc1nc(Nc3c(Cl)cccc3Cl)[nH]c12
[1]
  solubility: Insoluble

## CC1(C)Cc2c(c(C(=O)Nc3ccc(C(F)(F)F)cc3F)cc3nc(Nc4c(Cl)cncc4Cl)[nH]c23)O1
[1]
  solubility: Soluble

## Cc1cc2c(o1)c(C(=O)Nc1cccc(C(F)(F)F)c1)cc1nc(Nc3c(Cl)cccc3Cl)[nH]c12
[1]
  solubility: Insoluble

## Cc1ccc(NC(=O)c2cc3nc(Nc4c(Cl)cccc4Cl)[nH]c3c3c2OC(C)(C)C3)c(C)n1
[1]
  solubility: Soluble

## CC1(C)Cc2c(c(C(=O)Nc3ccc(C4CC4)cc3)cc3nc(Nc4c(F)cccc4Cl)[nH]c23)O1
[1]
  solubility: Soluble

## CC1(C)Cc2c(c(C(=O)NCC(F)(F)F)cc3nc(Nc4c(Cl)cccc4Cl)[nH]c23)O1
[1]
  solubility: Soluble

## CC1(C)Cc2c(c(C(=O)Nc3ccc(C(F)(F)F)nc3)cc3nc(Nc4c(Cl)cccc4Cl)[nH]c23)O1
[1]
  solubility: Soluble

## CC1(C)Cc2c(c(C(=O)NC3CCCCC3)cc3nc(Nc4c(Cl)cncc4Cl)[nH]c23)O1
[1]
  solubility: Soluble

## CC1(C)Cc2c(c(C(=O)Nc3ccc(C(F)(F)F)cc3)cc3nc(Nc4c(Cl)cncc4Cl)[nH]c23)O1
[1]
  solubility: Soluble
